Consider 20 molecules from patent US20130096088A1, “Inhibitors of Protein Tyrosine Kinase Activity” (METHYLGENE INC., priority 2011, published 2013).

One assay deals with T1, VEGFR2 (KDR) (Homo sapiens, UniProt P35968).
T1 construct: made in house; host or cells: Sf9 cells (Spodoptera frugiperda), baculovirus
Kind of assay: In vitro receptor tyrosine kinase assay (VEGF receptor KDR), DELFIA. The following applies: recombinant GST-VEGFR2 806-1356, ATP 0.6 uM; read-out: VEGFR IC50UM. It is filed as biochemical. An excerpt: In Vitro Receptor Tyrosine Kinase Assay (VEGF Receptor KDR)
This test measures the ability of compounds to inhibit the enzymatic activity of recombinant human VEGF receptor enzymatic activity.
A 1.6-kb cDNA corresponding to the catalytic domain of VEGFR2 (KDR) (Genbank accession number AF035121 amino acid 806 to 1356) is cloned into the Pst I site of the pDEST20 Gateway vector (Invitrogen) for the production of a GST-tagged version of that enzyme. This construct is used to generate recombinant baculovirus using the Bac-to-Bac™ system according to the manufacturer's instructions (Invitrogen).
The GST-VEGFR2806-1356 protein is expressed in Sf9 cells (Spodoptera frugiperda) upon infection with recombinant baculovirus construct. Briefly, Sf9 cells grown in suspension and maintained in serum-free medium (Sf900 II supplemented with gentamycin) at a cell density of about 2×10^6 cells/ml are infected with the above-mentioned viruses at a multiplicity of infection (MOI) of 0.1 during 72 hours at 27° C. with agitation at 120 rpm on a rotary shaker. Infected cells are harvested by centrifugation at 398 g for 15 min. Cell pellets are frozen at −80° C. until purification is performed.
All steps described in cell extraction and purification are performed at 4° C. Frozen Sf9 cell pellets infected with the GST-VEGFR2806-1356 recombinant baculovirus are thawed and gently resuspended in Buffer A (PBS pH 7.3 supplemented with 1 μg/ml pepstatin, 2 μg/ml Aprotinin and leupeptin, 50 μg/ml PMSF, 50 μg/ml TLCK and 10 μM E64 and 0.5 mM DTT) using 3 ml of buffer per gram of cells. Suspension is Dounce homogenized and 1% Triton X-100 is added to the homogenate after which it is centrifuged at 22500 g, 30 min., 4° C. The supernatant (cell extract) is used as starting material for purification of GST-VEGFR2806-1356.
The supernatant is loaded onto a GST-agarose column (Sigma) equilibrated with PBS pH 7.3. Following a four column volume (CV) wash with PBS pH 7.3+1% Triton X-100 and 4 CV wash with buffer B (50 mM Tris pH 8.0, 20% glycerol and 100 mM NaCl), bound proteins are step eluted with 5 CV of buffer B supplemented with 5 mM DTT and 15 mM glutathion. GST-VEGFR2806-1356 enriched fractions from this chromatography step are pooled based on U.V. trace i.e. fractions with high O.D.280. Final GST-VEGFR2806-1356 protein preparations concentrations are about 0.7 mg/ml with purity approximating 70%. Purified GST-VEGFR2806-1356 protein stocks are aliquoted and frozen at −80° C. prior to use in enzymatic assay.
Inhibition of VEGFR/KDR is measured in a DELFIA™ assay (Perkin Elmer). The substrate poly(Glu4,Tyr) is immobilized onto black high-binding polystyrene 96-well plates. The coated plates are washed and stored at 4° C. During the assay, the enzyme is pre-incubated with inhibitor and Mg-ATP on ice in polypropylene 96-well plates for 4 minutes, and then transferred to the coated plates. The subsequent kinase reaction takes place at 30° C. for 10-30 minutes. ATP concentrations in the assay are 0.6 uM for VEGFR/KDR (2× the Km). Enzyme concentration is 5 nM. After incubation, the kinase reactions are quenched with EDTA and the plates are washed. Phosphorylated product is detected by incubation with Europium-labeled anti-phosphotyrosine MoAb. After washing the plates, bound MoAb is detected by time-resolved fluorescence in a Gemini SpectraMax reader (Molecular Devices). Compounds are evaluated over a range of concentrations, and IC50 values (concentration of compounds giving 50% inhibition of enzymatic activity) are determined.

For assay [1], the system named is laser-induced choroidal neovascularization (CNV). Kind of assay: In vivo choroidal neovascularization (CNV) model. Also on record: species or system rat. The following applies: Rattus norvegicus, 240 h; Brown-Norway rats, dose 3 nmol/eye, injection on Day 3, CNV area on Day 10; read-out: Inhibition of CNV Progression (%). The source says: In Vivo Choroidal Neovascularization (CNV) Model This test measures the capacity of compounds to inhibit CNV progression. CNV is the main cause of severe vision loss in patients suffering from age-related macular degeneration (AMD). Male Brown-Norway rats (Charles River Japan Co., Ltd.) were used in these studies. Rats were anesthetized by intraperitoneal injection of pentobarbital, and the right pupil was dilated with 0.5% tropicamide and 0.5% phenylephrine hydrochloride. The right eye received 6 laser burns between retinal vessels using a slit lamp delivery system of Green laser Photocoagulator (Nidex Inc., Japan), and microscope slide glass with 10 mg/mL hyaluronic acid (SIGMA) used as a contact lens. The laser power was 200 mW for 0.1 second and spot diameter was 100 μm. At the time of laser burn, bubble production was observed; which is an indication of rupture of Bruch's membrane which is important for CNV generation. After animals were anesthetized, and the right pupil dilated (as mentioned above), the right eye of the animal received the compound or vehicle by an injection (3 μL/eye) at doses of 3 or 10 nmol/eye on Day 3. The compounds were dissolved or suspended in CBS, PBS, or other adequate vehicles before injection. On Day 10, the animals were anesthetized with ether, and high molecular weight fluorescein isothiocyanate (FITC)-dextran (SIGMA, 2×10^6 MW) was injected via a tail vein (20 mg/rat). About 30 min after FITC-dextran injection, animals were euthanized by ether or carbon dioxide, and the eyes were removed and fixed with 10% formaline neutral buffer solution. After over 1 hour of fixation, RPE-choroid-sclera flat mounts were obtained by removing cornea, lens and retina from the eyeballs. The flat mounts were mounted in 50% glycerol on a microscope slide, and the portion burned by laser was photographed using a fluorescence microscope (Nikon Corporation, excitation filter: 465-495 nm, absorption filter: 515-555 nm). The CNV area was obtained by measurement of hyper-fluorescence area observed on the photograph using Scion image. The average CNV area of 6 burns was used as an individual value of CNV area, and the average CNV area of compound treated group was compared with that of the vehicle-treated group.

T1 sequence (P35968 806-1356): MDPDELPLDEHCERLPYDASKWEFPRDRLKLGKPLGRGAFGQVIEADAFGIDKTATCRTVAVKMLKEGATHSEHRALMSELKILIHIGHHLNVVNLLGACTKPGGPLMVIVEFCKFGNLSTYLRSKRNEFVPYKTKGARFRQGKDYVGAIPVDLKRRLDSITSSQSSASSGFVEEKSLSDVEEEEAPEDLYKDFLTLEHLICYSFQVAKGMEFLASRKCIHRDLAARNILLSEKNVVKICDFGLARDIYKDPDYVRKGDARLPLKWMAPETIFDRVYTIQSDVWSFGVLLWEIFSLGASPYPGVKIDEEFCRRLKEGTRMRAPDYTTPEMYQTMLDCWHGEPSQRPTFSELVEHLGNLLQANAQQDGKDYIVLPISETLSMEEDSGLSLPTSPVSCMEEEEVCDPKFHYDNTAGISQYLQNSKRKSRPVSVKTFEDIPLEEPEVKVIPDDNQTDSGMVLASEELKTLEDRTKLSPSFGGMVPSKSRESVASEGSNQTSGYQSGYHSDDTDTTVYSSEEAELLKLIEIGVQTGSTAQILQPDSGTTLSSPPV

For `O=C(Nc1ccc(Oc2ccnc3cc(-c4ccc(CN5CCOCCOCCOCCOCCOCC5)cn4)sc23)c(F)c1)NC1CC1` [Compound 8, 1-(4-(2-(5-((1,4,7,10,13-Pentaoxa-16-azacyclooctadecan-16-yl)methyl)pyridin-2-yl)thieno[3,2-b]pyridin-7-yloxy)-3-fluorophenyl)-3-cyclopropylurea], the IC50 at VEGFR2 (KDR) was determined as 13 nM.

As for `CC(C)[C@H](N)C(=O)N[C@H](C(=O)OCC(=O)N1CCN(Cc2ccc(-c3cc4nccc(Oc5ccc(NC(=O)NC6CC6)cc5F)c4s3)nc2)CC1)C(C)C` [Compound 12, (S)-2-(4-((6-(7-(4-(3-Cyclopropylureido)-2-fluorophenoxy)thieno[3,2-b]pyridin-2-yl)pyridin-3-yl)methyl)piperazin-1-yl)-2-oxoethyl 2-((S)-2-amino-3-methylbutanamido)-3-methylbutanoate], the IC50 on VEGFR2 (KDR) came to 13 nM. For the same molecule, the inhibition in vivo at 3 nmol/eye in assay [1] amounted to 47%.

With `CC(C)[C@H](NC(=O)CN)C(=O)OCC(=O)N1CCN(Cc2ccc(-c3cc4nccc(Oc5ccc(NC(=O)NC6CC6)cc5F)c4s3)nc2)CC1` [Compound 13], the IC50 on VEGFR2 (KDR) was determined as 10 nM. The inhibition in vivo at 3 nmol/eye in assay [1] stood at 41.6%.

Regarding `COCCOCCOCCOCCC(=O)OCC(=O)N1CCN(Cc2ccc(-c3cc4nccc(Oc5ccc(NC(=O)NC6CC6)cc5F)c4s3)nc2)CC1` [Compound 18], the IC50 on VEGFR2 (KDR) turned out to be 6 nM. For the same molecule, in assay [1], the inhibition in vivo at 3 nmol/eye was 42.9%.

For `COCCOCCOCCOCCOCCC(=O)OCC(=O)N1CCN(Cc2ccc(-c3cc4nccc(Oc5ccc(NC(=O)NC6CC6)cc5F)c4s3)nc2)CC1` [Compound 19], the IC50 at VEGFR2 (KDR) is 20 nM.

Take `COCCOCCOCCOCCNC1CCN(Cc2ccc(-c3cc4nccc(Oc5ccc(NC(=O)NC6CC6)cc5F)c4s3)nc2)CC1` [Compound 22, 1-(4-(2-(5-((4-(2,5,8,11-Tetraoxamidecan-13-ylamino)piperidin-1-yl)methyl)pyridin-2-yl)thieno[3,2-b]pyridin-7-yloxy)-3-fluorophenyl)-3-cyclopropylurea]: the IC50 on VEGFR2 (KDR) was found to be 13 nM.

Turning to `CCNC(=O)N(CCOCCOCCOCCOC)C1CCN(Cc2ccc(-c3cc4nccc(Oc5ccc(NC(=O)NC6CC6)cc5F)c4s3)nc2)CC1` [Compound 23, 1-(4-(2-(5-((4-Ethylaminocarbonyl-(2,5,8,11-tetraoxamidecan-13-ylamino)piperidin-1-yl)methyl)pyridin-2-yl)thieno[3,2-b]pyridin-7-yloxy)-3-fluorophenyl)-3-cyclopropylurea], at VEGFR2 (KDR), the IC50 is 18 nM. Moreover, the inhibition in vivo at 3 nmol/eye in assay [1] was 44.2%.

`COCCOCCOCCOCCN(C(=O)CO)C1CCN(Cc2ccc(-c3cc4nccc(Oc5ccc(NC(=O)NC6CC6)cc5F)c4s3)nc2)CC1` [Compound 24]: on VEGFR2 (KDR), the IC50 was 15 nM. In addition, in assay [1], the inhibition in vivo at 3 nmol/eye is 28.9%.

For `COCCOCCOCCOCCN(C(=O)C(F)(F)F)C1CCN(Cc2ccc(-c3cc4nccc(Oc5ccc(NC(=O)NC6CC6)cc5F)c4s3)nc2)CC1` [Compound 25], at VEGFR2 (KDR), the IC50 stood at 53 nM. The inhibition in vivo at 3 nmol/eye in assay [1] was 20.9%.

As to `COCCOCCOCCOCCN(C1CCN(Cc2ccc(-c3cc4nccc(Oc5ccc(NC(=O)NC6CC6)cc5F)c4s3)nc2)CC1)S(C)(=O)=O` [Compound 26], the IC50 on VEGFR2 (KDR) was determined as 13 nM.

For the molecule `COCCOCCOCCOCCOCCn1cc(-c2cc3nccc(Oc4ccc(NC(=O)NC5CC5)cc4F)c3s2)nn1` [Compound 33, 1-(4-(2-(1-(2,5,8,11,14-Pentaoxahexadecan-16-yl)-1H-1,2,3-triazol-4-yl)thieno[3,2-b]pyridin-7-yloxy)-3-fluorophenyl)-3-cyclopropylurea], on VEGFR2 (KDR), the IC50 stood at 107 nM.

With `COCCOCCOCCOCCOc1ccccc1NCc1ccc(-c2cc3nccc(Oc4ccc(NC(=O)NC5CC5)cc4F)c3s2)nc1` [Compound 38, 1-(4-(2-(5-((2-(2,5,8,11-Tetraoxamidecan-13-yloxy)phenylamino)methyl)pyridin-2-yl)thieno[3,2-b]pyridin-7-yloxy)-3-fluorophenyl)-3-cyclopropylurea], the IC50 at VEGFR2 (KDR) amounted to 24 nM.

Consider `COCCOCCOCCOCCOc1cccc(NCc2ccc(-c3cc4nccc(Oc5ccc(NC(=O)NC6CC6)cc5F)c4s3)nc2)c1` [Compound 40], for which the IC50 at VEGFR2 (KDR) turned out to be 24 nM.

On to `COCCOCCOCC(=O)N1CC(N(CC(=O)O)Cc2ccc(-c3cc4nccc(Oc5ccc(NC(=O)NC6CC6)cc5F)c4s3)nc2)C1` [Compound 45, 2-(((6-(7-(4-(3-Cyclopropylureido)-2-fluorophenoxy)thieno[3,2-b]pyridin-2-yl)pyridin-3-yl)methyl)(1-(2-(2-(2-methoxyethoxy)ethoxy)acetyl)azetidin-3-yl)amino)acetic acid], for which, on VEGFR2 (KDR), the IC50 is 3 nM.

`COCCOCCOCCOCC(=O)N1CCN(Cc2ccc(-c3cc4nccc(Oc5ccc(NC(=O)NC6CC6)cc5F)c4s3)nc2)CC1` [Compound 47]: the IC50 on VEGFR2 (KDR) worked out at 12 nM.

Regarding `COCCOCCOCCOCCOCC(=O)N1CCN(Cc2ccc(-c3cc4nccc(Oc5ccc(NC(=O)NC6CC6)cc5F)c4s3)nc2)CC1` [Compound 48], the IC50 at VEGFR2 (KDR) was 13 nM.

On to `COCCOCCOCCOCCOCCOC(=O)N1CCN(Cc2ccc(-c3cc4nccc(Oc5ccc(NC(=O)NC6CC6)cc5F)c4s3)nc2)CC1` [Compound 52], for which, at VEGFR2 (KDR), the IC50 amounted to 13 nM.

`COCCOCCOCCNC(=O)N1CCN(Cc2ccc(-c3cc4nccc(Oc5ccc(NC(=O)NC6CC6)cc5F)c4s3)nc2)CC1` [Compound 54, 4-((6-(7-(4-(3-Cyclopropylureido)-2-fluorophenoxy)thieno[3,2-b]pyridin-2-yl)pyridin-3-yl)methyl)-N-(2-(2-(2-methoxyethoxy)ethoxy)ethyl)piperazine-1-carboxamide]: on VEGFR2 (KDR), the IC50 amounted to 2 nM.

In the case of `COCCOCCOCCOCCNC(=O)N1CCN(Cc2ccc(-c3cc4nccc(Oc5ccc(NC(=O)NC6CC6)cc5F)c4s3)nc2)CC1` [Compound 55], the IC50 at VEGFR2 (KDR) turned out to be 2 nM.

In the case of `COCCOCCOCCOCCOCCNC(=O)N1CCN(Cc2ccc(-c3cc4nccc(Oc5ccc(NC(=O)NC6CC6)cc5F)c4s3)nc2)CC1` [Compound 56], on VEGFR2 (KDR), the IC50 turned out to be 2 nM.
